{
  "source": "paper PMC8037182",
  "about": "“Solvothermal Synthesis of Multiple Dihydropyrimidinones at a Time as Inhibitors of Eg5” (Molecules, 2021)",
  "system": "Hela cell line",
  "assay": "Cytotoxicity MTS assay, Hela cell line",
  "type": "cell-based",
  "details": "for OD490 value, Mean / OD490 value, Well 1 / OD490 value, Well 2 / OD490 value, Well 3: Hela cell line, MTS",
  "method_in_brief": "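IC50 reflects non-linear regression of percent cell viability on compound concentration, tested from 0.5 to 100 µM final during a 24 h exposure. Viability was read by MTS at 490 nm; monastrol served as positive control and 0.025% DMSO as blank.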",
  "data": [
    {"molecule": "CCOC(=O)c1c(C2NC(=O)NC(C)=C2C(=O)Nc2ccccc2OC)[nH]c(C(=O)OC)c1C", "note": "(stereo not shown) [D1]", "values": [
      {"measurement": "OD490 value, Mean", "setting": "0.5μM, first assay", "result": 2.5955},
      {"measurement": "OD490 value, Well 1", "setting": "0.5μM, first assay", "result": 2.6286},
      {"measurement": "OD490 value, Well 2", "setting": "0.5μM, first assay", "result": 2.5425},
      {"measurement": "OD490 value, Well 3", "setting": "0.5μM, first assay", "result": 2.6155},
      {"measurement": "OD490 value, Mean", "setting": "0.5μM, second assay", "result": 2.5919},
      {"measurement": "OD490 value, Well 1", "setting": "0.5μM, second assay", "result": 2.6314},
      {"measurement": "OD490 value, Well 2", "setting": "0.5μM, second assay", "result": 2.6010},
      {"measurement": "OD490 value, Well 3", "setting": "0.5μM, second assay", "result": 2.5433},
      {"measurement": "OD490 value, Mean", "setting": "0.5μM, third assay", "result": 2.5096},
      {"measurement": "OD490 value, Well 1", "setting": "0.5μM, third assay", "result": 2.7036},
      {"measurement": "OD490 value, Well 2", "setting": "0.5μM, third assay", "result": 2.5565},
      {"measurement": "OD490 value, Well 3", "setting": "0.5μM, third assay", "result": 2.2688},
      {"measurement": "OD490 value, Mean", "setting": "1μM, first assay", "result": 2.6416},
      {"measurement": "OD490 value, Well 1", "setting": "1μM, first assay", "result": 2.6885},
      {"measurement": "OD490 value, Well 2", "setting": "1μM, first assay", "result": 2.5442},
      {"measurement": "OD490 value, Well 3", "setting": "1μM, first assay", "result": 2.6922},
      {"measurement": "OD490 value, Mean", "setting": "1μM, second assay", "result": 2.5793},
      {"measurement": "OD490 value, Well 1", "setting": "1μM, second assay", "result": 2.5367},
      {"measurement": "OD490 value, Well 2", "setting": "1μM, second assay", "result": 2.4698},
      {"measurement": "OD490 value, Well 3", "setting": "1μM, second assay", "result": 2.7314},
      {"measurement": "OD490 value, Mean", "setting": "1μM, third assay", "result": 2.7183},
      {"measurement": "OD490 value, Well 1", "setting": "1μM, third assay", "result": 2.6969},
      {"measurement": "OD490 value, Well 2", "setting": "1μM, third assay", "result": 2.7546},
      {"measurement": "OD490 value, Well 3", "setting": "1μM, third assay", "result": 2.7033},
      {"measurement": "OD490 value, Mean", "setting": "10μM, first assay", "result": 2.4106},
      {"measurement": "OD490 value, Well 1", "setting": "10μM, first assay", "result": 2.3442},
      {"measurement": "OD490 value, Well 2", "setting": "10μM, first assay", "result": 2.5603},
      {"measurement": "OD490 value, Well 3", "setting": "10μM, first assay", "result": 2.3272},
      {"measurement": "OD490 value, Mean", "setting": "10μM, second assay", "result": 2.3296},
      {"measurement": "OD490 value, Well 1", "setting": "10μM, second assay", "result": 2.6351},
      {"measurement": "OD490 value, Well 2", "setting": "10μM, second assay", "result": 2.1367},
      {"measurement": "OD490 value, Well 3", "setting": "10μM, second assay", "result": 2.2169},
      {"measurement": "OD490 value, Mean", "setting": "10μM, third assay", "result": 2.4826},
      {"measurement": "OD490 value, Well 1", "setting": "10μM, third assay", "result": 2.5635},
      {"measurement": "OD490 value, Well 2", "setting": "10μM, third assay", "result": 2.3145},
      {"measurement": "OD490 value, Well 3", "setting": "10μM, third assay", "result": 2.5698},
      {"measurement": "OD490 value, Mean", "setting": "25μM, first assay", "result": 2.1398},
      {"measurement": "OD490 value, Well 1", "setting": "25μM, first assay", "result": 2.1204},
      {"measurement": "OD490 value, Well 2", "setting": "25μM, first assay", "result": 2.2546},
      {"measurement": "OD490 value, Well 3", "setting": "25μM, first assay", "result": 2.0445},
      {"measurement": "OD490 value, Mean", "setting": "25μM, second assay", "result": 2.1914},
      {"measurement": "OD490 value, Well 1", "setting": "25μM, second assay", "result": 2.2361},
      {"measurement": "OD490 value, Well 2", "setting": "25μM, second assay", "result": 2.1235},
      {"measurement": "OD490 value, Well 3", "setting": "25μM, second assay", "result": 2.2145},
      {"measurement": "OD490 value, Mean", "setting": "25μM, third assay", "result": 2.1507},
      {"measurement": "OD490 value, Well 1", "setting": "25μM, third assay", "result": 2.2233},
      {"measurement": "OD490 value, Well 2", "setting": "25μM, third assay", "result": 2.2142},
      {"measurement": "OD490 value, Well 3", "setting": "25μM, third assay", "result": 2.0145},
      {"measurement": "OD490 value, Mean", "setting": "50μM, first assay", "result": 2.0448},
      {"measurement": "OD490 value, Well 1", "setting": "50μM, first assay", "result": 2.0719},
      {"measurement": "OD490 value, Well 2", "setting": "50μM, first assay", "result": 2.1034},
      {"measurement": "OD490 value, Well 3", "setting": "50μM, first assay", "result": 1.9590},
      {"measurement": "OD490 value, Mean", "setting": "50μM, second assay", "result": 2.0574},
      {"measurement": "OD490 value, Well 1", "setting": "50μM, second assay", "result": 1.9987},
      {"measurement": "OD490 value, Well 2", "setting": "50μM, second assay", "result": 2.1136},
      {"measurement": "OD490 value, Well 3", "setting": "50μM, second assay", "result": 2.0599},
      {"measurement": "OD490 value, Mean", "setting": "50μM, third assay", "result": 2.0424},
      {"measurement": "OD490 value, Well 1", "setting": "50μM, third assay", "result": 2.0136},
      {"measurement": "OD490 value, Well 2", "setting": "50μM, third assay", "result": 1.9658},
      {"measurement": "OD490 value, Well 3", "setting": "50μM, third assay", "result": 2.1478},
      {"measurement": "OD490 value, Mean", "setting": "100μM, first assay", "result": 1.9714},
      {"measurement": "OD490 value, Well 1", "setting": "100μM, first assay", "result": 1.9106},
      {"measurement": "OD490 value, Well 2", "setting": "100μM, first assay", "result": 1.9576},
      {"measurement": "OD490 value, Well 3", "setting": "100μM, first assay", "result": 2.0459},
      {"measurement": "OD490 value, Mean", "setting": "100μM, second assay", "result": 1.9690},
      {"measurement": "OD490 value, Well 1", "setting": "100μM, second assay", "result": 2.0360},
      {"measurement": "OD490 value, Well 2", "setting": "100μM, second assay", "result": 1.8490},
      {"measurement": "OD490 value, Well 3", "setting": "100μM, second assay", "result": 2.0220},
      {"measurement": "OD490 value, Mean", "setting": "100μM, third assay", "result": 1.9075},
      {"measurement": "OD490 value, Well 1", "setting": "100μM, third assay", "result": 2.0141},
      {"measurement": "OD490 value, Well 2", "setting": "100μM, third assay", "result": 1.8426},
      {"measurement": "OD490 value, Well 3", "setting": "100μM, third assay", "result": 1.8657},
      {"measurement": "IC50", "setting": "MTS assay, 24 h exposure", "result": 128, "unit": "µM"}
    ]}
  ]
}
